Patent US20080234304A1, “N3-Pyridyl-Thiamine And Its Use In Cancer Treatments” (AVEO PHARMACEUTICALS, INC., priority 2004, published 2008)
“Also recorded” adds a separate entry of the source.

Legend:
[1] = biological target: purified apotransketolase; experiment: inhibition of purified apotransketolase; assay type: biochemical
Excerpt: N3PT is a thiamine (vitamin B1) derivative. Thiamine pyrophosphate (TPP) is a co-factor for catalysis by the enzyme transketolase (as well as for the enzymes kGDH and PDH). […] A standard method for isolating and measuring the IC50 of apotransketolase is described in Konig et al., J. Biol. Chem. 269: 10879-82 (1994).

transketolase [2] = biological target: T1, transketolase (Mus musculus, UniProt P40142); experiment: transketolase activity in blood and tissues of N3PT-treated mice; assay type: in vivo
T1 construct: from tissue; host or cells: whole blood, spleen, brain and other tissues of Balb C nude mice; also xenograft tumours
T1 sequence (P40142 1-623): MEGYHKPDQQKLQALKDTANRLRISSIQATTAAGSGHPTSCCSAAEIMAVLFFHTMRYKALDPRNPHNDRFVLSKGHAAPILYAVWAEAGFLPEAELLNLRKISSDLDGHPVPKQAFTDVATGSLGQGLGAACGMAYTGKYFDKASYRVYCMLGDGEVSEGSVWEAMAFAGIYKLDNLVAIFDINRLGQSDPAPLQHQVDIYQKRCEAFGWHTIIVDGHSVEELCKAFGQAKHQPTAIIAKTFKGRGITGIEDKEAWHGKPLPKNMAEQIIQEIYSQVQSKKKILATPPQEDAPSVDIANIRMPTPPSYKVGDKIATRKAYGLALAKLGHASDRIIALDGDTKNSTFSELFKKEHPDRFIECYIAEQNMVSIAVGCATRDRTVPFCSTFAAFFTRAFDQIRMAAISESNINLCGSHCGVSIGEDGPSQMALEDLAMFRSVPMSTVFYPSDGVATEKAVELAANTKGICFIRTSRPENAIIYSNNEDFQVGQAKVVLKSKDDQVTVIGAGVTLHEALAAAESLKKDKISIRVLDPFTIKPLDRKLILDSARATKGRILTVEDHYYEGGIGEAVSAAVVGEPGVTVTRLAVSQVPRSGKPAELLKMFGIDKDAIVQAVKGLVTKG
Procedure: (§1) […] Blood samples were taken (40 μl whole blood) serially or from sacrificed animals at the end of a study. Tissues, including tumor, brain, heart, kidney, liver, lung, spleen, were taken and flash frozen in liquid nitrogen or on dry ice and stored at −80° C. until assay. Blood was diluted into lysis buffer and dissolved. Tissues were suspended in lysis buffer and homogenized with PowerGen 125 (Fisher Scientific) while being submerged in an ice-water bath.
(§2) Transketolase assays were performed as in Example 2. The lysate was used right away or flash frozen and stored at −80° C. until assay. The protein concentration in the lysate was determined using a Bradford assay (BioRad) with BSA as a standard. The enzymatic velocity was normalized to the total protein concentration for inter-sample comparisons. In order to obtain reliable results across samples, it was important to have similar starting protein concentrations (such as within 30%). This was achieved by weighing the tissue before lysis so that the suspensions contained similar tissue/ml lysis buffer for all samples.

transketolase [3] = experiment: as above; assay type: in vivo, mouse; conditions: 200 mg/kg/day, relative to vehicle
Procedure: as §1, §2

HCT-116 Luc+ tumors = experiment: mouse xenograft model, tumor growth; assay type: in vivo; conditions: 200 mg/kg/day, twice daily, ip; Balb C nude mice
Procedure: A mouse xenograft model was used to evaluate the efficacy of N3PT in modulating tumor growth. Cancer cells (HCT-116 Luc+, comprising a stably transfected luciferase gene) were injected subcutaneously (10^6 cells) into Balb C nude mice on both flanks on day 7 prior to treatment. Tumors were allowed to grow to palpable size from test day 0, defined as the start of a treatment regime. N3PT was injected ip (intraperitoneally) at a given regimen (e.g., 200 mg/kg/day) and tumor size monitored by luminance intensity from day 0-7, caliper measurement after day 7, and by weight at the end of study, after the animals were sacrificed. See, e.g., Wang and El-Deiry, Cancer Biol Ther. 2(2):196-202 (2003); Ray et al., Cancer Res. 63(6):1160-5 (2003); see also, e.g., U.S. Pat. Nos. 6,416,960; 6,596,257; and 6,217,847.

[4] = biological target: T2, glucose-6-phosphate dehydrogenase (G6PDH) (Mus musculus, UniProt Q00612); experiment: G6PDH activity in blood and tissues of N3PT-treated mice; assay type: in vivo
T2 construct: (G6PDH) in blood, spleen and brain after a single dose of N3PT in mice; from tissue; host or cells: blood, spleen and brain of Balb C nude mice
T2 sequence (Q00612 whole entry): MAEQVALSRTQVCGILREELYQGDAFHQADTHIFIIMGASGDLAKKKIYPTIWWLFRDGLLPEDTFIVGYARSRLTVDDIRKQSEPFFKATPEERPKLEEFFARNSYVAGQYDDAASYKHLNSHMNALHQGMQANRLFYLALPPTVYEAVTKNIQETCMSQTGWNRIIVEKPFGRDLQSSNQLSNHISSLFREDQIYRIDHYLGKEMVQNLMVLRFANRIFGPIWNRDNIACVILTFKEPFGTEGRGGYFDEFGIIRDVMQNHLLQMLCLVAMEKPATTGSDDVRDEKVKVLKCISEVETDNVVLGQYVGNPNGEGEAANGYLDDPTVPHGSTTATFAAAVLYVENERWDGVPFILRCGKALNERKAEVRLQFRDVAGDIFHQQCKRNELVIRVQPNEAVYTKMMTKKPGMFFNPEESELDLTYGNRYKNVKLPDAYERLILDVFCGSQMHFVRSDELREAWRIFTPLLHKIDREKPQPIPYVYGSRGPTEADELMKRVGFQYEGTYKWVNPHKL

K562 = experiment: inhibition of proliferation of K562 cells; assay type: cell-based; conditions: K562 CML line
Procedure: The ability of N3PT to inhibit proliferation of these cell lines was then tested. LAMA84 was the most sensitive to N3PT, displaying an IC50 of 0.3 μM. The other cell lines, HCT116 and K562, were less sensitive, displaying an IC50 of approximately 2 μM in both cases. LAMA84 also had the highest TK activity (per cell) among these three cancer lines.

Cc1ccc(C[n+]2csc(CCO)c2C)c(N)n1 [N3PT, 3-[(2-amino-6-methyl-3-pyridinyl)methyl]-5-(2-hydroxyethyl)-4-methyl thiazolium]
IC50 [1]: 21 nM | transketolase activity in whole blood (transketolase [2]; 200 mg/kg/day, relative to vehicle): reduced; also recorded: selectively inhibited | sensitivity of spleen transketolase to N3PT on low-thiamine diet (transketolase [2]; diets with 16.5, 5, 1 or 0 mg/kg thiamine, N3PT ip, 12 hours later): enhances the sensitivity to N3PT inhibition of TK in spleen; also recorded: more sensitive to TK inhibition by N3PT | selectivity of transketolase inhibition in vivo versus kGDH and G6PDH (transketolase [2]; single dose 100 mg/kg body weight, mouse, 100 mg/kg): selective inhibitor of transketolase in vivo; also recorded: selectively inhibits transketolase | duration of transketolase inhibition in vivo (transketolase [2]; single dose 100 mg/kg i.p., blood and spleen, 0-120 hr, 100 mg/kg): potent and long-lasting transketolase inhibitor in vivo | transketolase activity in tumors (transketolase [3]): reduced | growth of explant tumors (HCT-116 Luc+ tumors): inhibits growth of tumors in vivo; also recorded: inhibited the growth of explant tumors | G6PDH activity after repeated treatment ([4]; 200 mg/kg/day, % of vehicle average): no effect on G6PDH activity | G6PDH activity after single dose ([4]; single dose 100 mg/kg i.p., blood, spleen, brain, 0-120 hr, 100 mg/kg): no effect on G6PDH in vivo; also recorded: little or no effect | IC50 (K562): ~2000 nM
